According to PubChem BioAssay AID1769 (NMMLSC, 2009):

Target: glutathione S-transferase (Schistosoma japonicum GST tag binding GSH beads)
Experiment: GST–glutathione bead interaction interference profiling – biochemical, multiplex beads, flow cytometry, profiling panel (AID 1769);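 further: target is a GST and green fluorescent protein fusion captured on glutathione beads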
Conditions: flow cytometry fluorescence

Row | Structure (SMILES) | EC50
1 | Cc1cc2nc3c(=O)[nH]c(=O)[nH]c3nc2c([N+](=O)[O-])c1N | 1.18 µM
2 | O=C(OCC1O[C@@H](OC(=O)c2cc(O)c(O)c(O)c2)[C@@H](OC(=O)c2cc(O)c(O)c(O)c2)[C@@H](OC(=O)c2cc(O)c(O)c(O)c2)[C@@H]1OC(=O)c1cc(O)c(O)c(O)c1)c1cc(O)c(O)c(O)c1 (stereo partly specified) | 0.951 µM
3 | O=C1Nc2ccc(Br)cc2C12NNc1ccccc1O2 (stereo unspecified) | 2.38 µM
4 | O=C(NCc1cccs1)c1cccn2c(=O)c3sccc3nc12 | 0.664 µM
5 | COc1ccc(N/C=C/c2nc(SC)nnc2C)cc1 | 2.76 µM
6 | COc1ccccc1Nc1nc(-c2c(C)nc3ncccn23)cs1 | 12.2 µM
7 | COc1cc2[nH]c(=S)nc(Nc3ccc(NC(C)=O)cc3)c2cc1OC | 2.91 µM
8 | O=C(Oc1c(Br)cc(C(=S)N2CCOCC2)cc1Br)c1ccc(Cl)cc1 | 2.97 µM
9 | Cc1nc(N/N=C/c2ccc(O)cc2)c2cnn(-c3ccccc3)c2n1 | 3.58 µM
10 | COc1cccc(N=Nc2c(N)[nH]n3c(=O)c4c(nc23)CCCC4)c1 | 1.22 µM
11 | CC(C)NC(=S)N=Nc1c(O)[nH]c2ccc([N+](=O)[O-])cc12 | 1.43 µM
12 | O=c1c2ccccc2nc2ccc(NCc3cccs3)nn12 | 6.79 µM
13 | O=C(COC(=O)c1ccc2c(c1[N+](=O)[O-])C(=O)c1ccccc1C2=O)NC1CC1 | 28 µM
14 | COc1cc(/C=N/Nc2nc(C)nc3c2cnn3-c2ccccc2)ccc1O | 0.638 µM
15 | O=C(CSc1ccccc1)Nc1ccc(C(=O)Nc2cccc(O)c2)cc1 | 1.9 µM
16 | CCOc1ccccc1C(=O)Nc1cccc(-c2ccc3nncn3n2)c1 | 1.96 µM
17 | CCOc1cc(/C=C2\SC(=O)N=C2N)ccc1O | 2.47 µM
18 | N=c1oc2ccc3ccccc3c2cc1-c1nc(-c2ccccc2)cs1 | 1.4 µM
19 | Cc1cc(N/N=C/c2ccc(O)cc2O)nc(-n2nc(C)cc2C)n1 | 0.831 µM
20 | COc1cc2[nH]c(=S)nc(NCCc3ccc(C)cc3)c2cc1OC | 0.334 µM
21 | C/C(=N\Nc1ccc(S(N)(=O)=O)cc1[N+](=O)[O-])c1ccc2c(c1)OCO2 | 1.4 µM
22 | O=c1c2ccccc2nc2ccc(NCc3ccco3)nn12 | 50.8 µM

Row | Structure (SMILES) | EC50
23 | O=C(N/N=C/c1ccc2nccnc2c1)c1cccc([N+](=O)[O-])c1 | 8.59 µM
24 | COc1cc(OC)c(-c2c3cc(O)c(=O)cc-3oc3cc(O)c(O)cc23)cc1OC | 0.258 µM
25 | COc1cc(/C=N/NC(=O)CN(Cc2ccccc2)S(=O)(=O)c2ccc3c(c2)OCCO3)ccc1O | 20.3 µM
26 | Nc1nc2c(c(=O)[nH]1)C(c1cccc3ccccc13)C1=C(N2)c2ccccc2C1=O (stereo unspecified) | 2.59 µM
27 | NS(=O)(=O)c1ccc(Nc2nc(-c3ccc(O)cc3O)cs2)cc1 | 2.29 µM
28 | Cc1cc(=O)[nH]c2c(N=Nc3ccc(O)cc3)c(N)nn12 | 1.4 µM
29 | COc1ccc(S(=O)(=O)N2CCOCC2)cc1NC(=O)COc1cccnc1[N+](=O)[O-] | 64 µM
30 | COc1ccc(Nc2nc(-c3c(C)nc4ncccn34)cs2)cc1 | 8.39 µM
31 | Cc1nc2ncccn2c1-c1csc(Nc2ccc(O)cc2)n1 | 0.265 µM
32 | Cc1ccc2c(c1)c1nnc(SCC(=O)N3CCCc4ccccc43)nc1n2CC(=O)O | 69.6 µM
33 | Oc1c(CN2CCOCC2)ccc2ccccc12 | 24.5 µM
34 | COc1ccc(S(=O)(=O)N2CCCCC2)cc1NC(=O)c1ccc([N+](=O)[O-])o1 | 28.6 µM
35 | Nc1c([N+](=O)[O-])cc(-c2cnc[nH]2)cc1[N+](=O)[O-] | 0.391 µM
36 | O=[N+]([O-])c1ccc(/C=C/C2=NN(c3ccccc3)C(c3ccco3)C2)cc1 (stereo unspecified) | 1.34 µM
37 | O=C1/C(=C\c2ccc(-c3ccccc3Cl)o2)SC(=S)N1CC1CCCO1 (stereo unspecified) | 17.3 µM
38 | O=c1c2ccccc2nc2c3ccccc3c(NCc3cccnc3)nn12 | 0.348 µM
39 | CCn1cc(C(=O)O)c(=O)c2cc(F)c(N/N=C/c3ccccc3)cc21 | 3.88 µM
40 | N#Cc1ccc2ccn(CC(=O)N3CCCc4ccccc43)c2c1 | 2.4 µM
41 | O=C(O)c1cccc(-n2cccc2/C=C2/NC(=O)N(c3ccc(Cl)cc3)C2=O)c1 | 2.25 µM
42 | CCn1cc(C(=O)O)c(=O)c2cc(F)c(N/N=C/c3ccccc3[N+](=O)[O-])cc21 | 2.67 µM
43 | COc1ccc2o/c(=N/NC(=O)c3cccs3)c(C(N)=O)cc2c1 | 7.29 µM
44 | COCCN1C(=O)/C(=C/c2ccc(N3CCCC3)cc2C)SC1=S | 1.69 µM

Row | Structure (SMILES) | EC50
45 | COc1cc(C(=S)NCc2ccccc2)cc(Br)c1O | 53.7 µM
46 | O=c1c2ccccc2nc2c3ccccc3c(NCCO)nn12 | 3.55 µM
47 | COc1ccc(/C=N/NC(=O)c2ccncc2)cc1Cn1nc([N+](=O)[O-])c(Br)c1C | 9.22 µM
48 | O=C(CSc1ccc2nnc(-c3cccc(F)c3)n2n1)N1CCCc2ccccc21 | 0.16 µM
49 | CSc1nc2ccc(NC(=O)C3CC(=O)N(Cc4ccco4)C3)cc2s1 (stereo unspecified) | 46.9 µM
50 | Fc1cccc(Nc2ncnc3[nH]ncc23)c1 | 45.1 µM
51 | COc1cccc(C2CC(c3ccccc3)Nc3ncnn32)c1 (stereo unspecified) | 6.49 µM
52 | NC(=S)N=Nc1c(O)[nH]c2cc(F)c(F)cc12 | 15.6 µM
53 | Cc1ccc(-c2csc3nc4c5ccccc5c(NCCCN5CCOCC5)nn4c(=O)c23)cc1 | 0.346 µM
54 | CCN(CC)c1ccc(/C=C(\C#N)C(=O)c2ccc(Br)cc2)cc1 | 11.1 µM
55 | O=[N+]([O-])c1cc(-c2ncccn2)c([N+](=O)[O-])s1 | 7.57 µM
56 | CCN1/C(=C/c2ccc3cc(C)ccc3[n+]2C)Sc2ccc3sccc3c21 | 21 µM
57 | COc1ccc(-c2cc(=O)c(C(=O)c3ccc(C)cc3)n[nH]2)cc1 | 4.09 µM
58 | COc1ccc(-c2c3c(nc4sc5c(=O)[nH]c(C)nc5c24)CCC3)cc1 | 3.74 µM
59 | CC(C)c1cc(NCc2ccccn2)n2c(nc3ccccc32)c1C#N | 2.82 µM
60 | N#CCc1c(C#N)c(N)nc(N2CCN(C=O)CC2)c1C#N | 15.7 µM
61 | COc1ccc(OC)c(S(=O)(=O)Nc2ccc(O)c(Sc3ncn[nH]3)c2)c1 | 4.38 µM
62 | Cc1cccc(/C=N/N(CCO)C2=NS(=O)(=O)c3ccccc32)c1 | 60.2 µM
63 | Cc1ccc(O)c(N=Cc2cc(Cc3ccccc3)cc([N+](=O)[O-])c2O)c1 | 8.29 µM
64 | COc1ccc(N=C2S/C(=C\c3ccc(N4CCOCC4)o3)C(=O)N2CCc2c[nH]c3ccccc23)cc1 | 0.0269 µM
65 | NC(=O)c1cc2nc(-c3ccco3)cc(C(F)(F)F)n2n1 | 15.9 µM
66 | COc1cc(NC(=O)c2cccs2)c(OC)cc1NC(=O)CCC(=O)Nc1ccc2ncccc2c1 | 0.481 µM
